US20240158418A1 (C4 Therapeutics, Inc., priority 2021, published 2024)
Read-outs that look alike come from different tables or passages of the source.

How the values were obtained:
EGFR L858R = EGFR L858R (Homo sapiens, UniProt P00533, L858R); experiment: EGFR degradation, Total EGFR (L858R-specific) HTRF, NCI-H3255; assay type: cell-based; set-up: NCI-H3255 (harboring EGFR heterozygous L858R mutation); host or cells: NCI-H3255; details: NCI-H3255 cells, 6 hours, Total EGFR HTRF, read-out: H3255 EGFR DC50
Source text: NCI-H1975 (harboring EGFR heterozygous L858R-T790M mutations) and NCI-H3255 (harboring EGFR heterozygous L858R mutation) were purchased from ATCC and NCI, respectively. NCI-H1975+CS (harboring EGFR heterozygous L858R-T790M-C797S mutations) was generated using CRISPR technology to introduce the additional C797S mutation by Horizon Discovery. A431 (harboring EGFR wildtype) was purchased from ATCC. RPMI 1640 no-phenol red medium and fetal bovine serum (FBS) were purchased from Gibco (Grand Island, NY, USA). Cell culture flasks and 384-well microplates were acquired from VWR (Radnor, PA, USA). Phosphorylated (pY1068) EGFR and Total EGFR (using L858R-specific detection antibody and pan-EGFR antibody for EGFR mutant cell lines and EGFR wild-type cell lines, respectively) HTRF assay kits were purchased from Cisbio (Bedford, MA, USA).
Degradation of EGFR protein containing L858R mutation or wild-type was determined based on quantification of FRET signal using a Total EGFR (L858R-specific or pan-EGFR detecting) HTRF assay kit. Phospho-EGFR (pEGFR) inhibition was determined based on quantification of FRET signal using a pY1068 EGFR HTRF assay kit. In separate assay plates, test compounds were added to the 384-well plate from a top concentration of 10 μM with 11 points, half log titration in duplicates. For each assay, 12.5 uL of cells suspended in assay media (RPMI 1640 no-phenol red medium+10% FBS) at cell densities indicated for each cell line in Table 8 below were dispensed using a multi-channel pipette to 384-well low volume white HTRF microplates containing a duplicate concentration range of test compounds and DMSO controls. The plates were kept at 37° C. with 5% CO2 for 6 hours and then incubated with either phospho EGFR or Total EGFR HTRF detection antibodies according to the cell line and EGFR mutant being assayed. Cells treated in the absence of the test compound were the negative control. Positive control was set by wells containing all reagents but no cells. FRET signal was acquired on EnVision™ Multilabel Reader (PerkinElmer, Santa Clara, CA, USA). Compound concentration that achieves 50% degradation and inhibition was reported as DC50 and IC50, respectively.

EGFR L858R-T790M = molecular target: T1, EGFR L858R-T790M (Homo sapiens, UniProt P00533, L858R/T790M); experiment: EGFR degradation, Total EGFR (L858R-specific) HTRF, NCI-H1975; assay type: cell-based; details: NCI-H1975 cells, 6 hours, Total EGFR HTRF, read-out: H1975 EGFR DC50
T1 construct: NCI-H1975 (harboring EGFR heterozygous L858R-T790M mutations); host or cells: NCI-H1975
Outline: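 FRET signal from HTRF kits measured phospho-EGFR at pY1068 or total EGFR after 6 h treatment at 37 °C. Compounds ran as 11-point half-log dilutions from 10 μM in duplicate, in cells in phenol red-free RPMI with 10% FBS. Concentrations giving 50% inhibition or degradation were reported as IC50 or DC50.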

EGFR L858R, sequence (P00533 25-1210 L858R): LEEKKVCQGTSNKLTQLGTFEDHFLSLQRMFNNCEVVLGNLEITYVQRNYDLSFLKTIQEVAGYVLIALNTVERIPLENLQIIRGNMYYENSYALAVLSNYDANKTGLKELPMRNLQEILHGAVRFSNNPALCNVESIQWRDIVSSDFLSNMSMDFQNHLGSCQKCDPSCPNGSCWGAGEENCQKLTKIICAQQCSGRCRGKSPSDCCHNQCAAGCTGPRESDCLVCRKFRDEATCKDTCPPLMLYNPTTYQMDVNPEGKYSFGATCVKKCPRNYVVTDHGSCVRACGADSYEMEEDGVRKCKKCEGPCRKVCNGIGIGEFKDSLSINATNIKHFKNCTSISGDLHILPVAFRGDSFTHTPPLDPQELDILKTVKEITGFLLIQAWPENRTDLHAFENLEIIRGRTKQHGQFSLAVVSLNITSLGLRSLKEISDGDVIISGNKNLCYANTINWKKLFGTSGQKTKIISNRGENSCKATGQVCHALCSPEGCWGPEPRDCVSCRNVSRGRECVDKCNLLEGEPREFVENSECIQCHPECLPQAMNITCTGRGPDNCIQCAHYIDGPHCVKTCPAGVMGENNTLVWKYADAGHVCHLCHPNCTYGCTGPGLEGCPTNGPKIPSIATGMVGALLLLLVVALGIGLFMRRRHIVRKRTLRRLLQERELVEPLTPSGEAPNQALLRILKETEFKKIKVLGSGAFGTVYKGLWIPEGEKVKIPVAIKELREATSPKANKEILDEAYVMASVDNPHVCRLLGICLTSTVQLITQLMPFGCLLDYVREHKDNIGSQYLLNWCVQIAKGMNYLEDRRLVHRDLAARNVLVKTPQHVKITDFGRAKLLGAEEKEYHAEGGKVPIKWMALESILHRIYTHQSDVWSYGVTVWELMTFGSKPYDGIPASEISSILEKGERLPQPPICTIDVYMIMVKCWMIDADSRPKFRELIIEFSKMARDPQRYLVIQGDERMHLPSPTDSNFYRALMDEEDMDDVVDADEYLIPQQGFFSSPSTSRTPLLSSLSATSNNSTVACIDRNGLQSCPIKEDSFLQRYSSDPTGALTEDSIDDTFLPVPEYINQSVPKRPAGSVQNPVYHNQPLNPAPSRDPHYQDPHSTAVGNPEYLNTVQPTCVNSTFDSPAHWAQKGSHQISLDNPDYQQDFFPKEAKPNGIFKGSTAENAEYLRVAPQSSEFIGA
T1 sequence (P00533 25-1210 T790M/L858R): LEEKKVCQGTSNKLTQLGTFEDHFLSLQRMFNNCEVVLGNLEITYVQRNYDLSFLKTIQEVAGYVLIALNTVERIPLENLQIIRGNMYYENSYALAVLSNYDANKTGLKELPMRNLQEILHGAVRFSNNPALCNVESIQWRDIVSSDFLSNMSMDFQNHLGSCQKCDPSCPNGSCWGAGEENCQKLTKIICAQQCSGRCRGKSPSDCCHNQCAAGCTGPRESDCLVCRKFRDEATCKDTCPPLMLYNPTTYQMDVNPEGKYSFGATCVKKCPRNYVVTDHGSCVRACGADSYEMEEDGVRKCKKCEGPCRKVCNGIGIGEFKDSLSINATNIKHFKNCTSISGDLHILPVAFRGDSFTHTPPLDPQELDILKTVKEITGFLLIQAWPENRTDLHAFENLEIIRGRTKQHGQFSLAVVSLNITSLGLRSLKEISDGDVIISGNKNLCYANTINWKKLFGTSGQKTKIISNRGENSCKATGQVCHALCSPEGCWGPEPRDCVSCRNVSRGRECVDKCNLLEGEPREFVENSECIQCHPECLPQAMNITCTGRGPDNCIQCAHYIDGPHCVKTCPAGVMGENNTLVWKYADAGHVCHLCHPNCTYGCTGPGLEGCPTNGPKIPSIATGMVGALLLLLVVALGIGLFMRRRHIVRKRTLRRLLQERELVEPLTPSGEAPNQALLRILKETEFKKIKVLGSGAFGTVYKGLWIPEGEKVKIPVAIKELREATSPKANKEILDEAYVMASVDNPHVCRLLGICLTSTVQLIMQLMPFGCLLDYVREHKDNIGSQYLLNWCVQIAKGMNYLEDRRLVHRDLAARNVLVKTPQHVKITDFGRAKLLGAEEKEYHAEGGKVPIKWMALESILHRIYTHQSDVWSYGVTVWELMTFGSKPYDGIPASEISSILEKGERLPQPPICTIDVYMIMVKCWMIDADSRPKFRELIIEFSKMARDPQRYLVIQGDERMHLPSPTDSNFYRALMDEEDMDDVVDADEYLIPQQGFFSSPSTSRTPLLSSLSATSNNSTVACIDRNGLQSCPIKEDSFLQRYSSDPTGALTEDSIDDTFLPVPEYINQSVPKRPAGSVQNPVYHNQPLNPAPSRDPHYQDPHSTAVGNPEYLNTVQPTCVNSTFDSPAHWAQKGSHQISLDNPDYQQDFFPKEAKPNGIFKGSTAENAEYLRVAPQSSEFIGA

SMILES | DC50 (EGFR L858R; Table 9A) | DC50 (EGFR L858R-T790M; Table 9A) | DC50 (EGFR L858R; Table 9B) | DC50 (EGFR L858R-T790M; Table 9B)
O=C1CCC(Nc2ccc(C3CCN(CC(=O)N4CCN(Cc5ccc(-c6cc(F)c7c(c6)C(=O)N(C(C(=O)Nc6nccs6)c6ncn8c6CCC8)C7)cc5)CC4)CC3)cc2)C(=O)N1 (centres unmarked) [Compound 6, 2-(6,7-dihydro-5H-pyrrolo[1,2-c]imidazol-1-yl)-2-[6-[4-[[4-[2-[4-[4-[(2,6-dioxo-3-piperidyl)amino]phenyl]-1-piperidyl]acetyl]piperazin-1-yl]methyl]phenyl]-4-fluoro-1-oxo-isoindolin-2-yl]-N-thiazol-2-yl-acetamide] | < 50 nM | < 50 nM |  | 
Cn1nc(N2CCC(=O)NC2=O)c2ccc(C3CCN(CC(=O)N4CCN(c5ccc(-c6cc(F)c7c(c6)C(=O)N(C(C(=O)Nc6nccs6)c6ncn8c6C[C@@H](F)C8)C7)cc5)CC4)CC3)cc21 (stereo partly drawn) [Compound 45, 2-[6-[4-[4-[2-[4-[3-(2,4-dioxohexahydropyrimidin-1-yl)-1-methyl-indazol-6-yl]-1-piperidyl]acetyl]piperazin-1-yl]phenyl]-4-fluoro-1-oxo-isoindolin-2-yl]-2-[(6R)-6-fluoro-6,7-dihydro-5H-pyrrolo[1,2-c]imidazol-1-yl]-N-thiazol-2-yl-acetamide] | < 50 nM | < 50 nM |  | 
O=C1CCC(Nc2ccc(C3CCC(CC(=O)N4CCN(c5ccc(-c6cc(F)c7c(c6)C(=O)N(C(C(=O)Nc6nccs6)c6ncn8c6CCC8)C7)cc5)CC4)CC3)cc2)C(=O)N1 (centres unmarked) [Compound 177, 2-(6,7-dihydro-5H-pyrrolo[1,2-c]imidazol-1-yl)-2-(6-(4-(4-(2-(4-(4-((2,6-dioxopiperidin-3-yl)amino)phenyl)cyclohexyl)acetyl)piperazin-1-yl)phenyl)-4-fluoro-1-oxoisoindolin-2-yl)-N-(thiazol-2-yl)acetamide] |  |  | < 50 nM | < 50 nM
O=C1CCC(N2Cc3c(OC4CCN(C(=O)CCCN5CCN(c6ccc(-c7ccc8cn(C(C(=O)Nc9nccs9)c9ncn%10c9CCC%10)nc8c7F)cn6)CC5)CC4)cccc3C2=O)C(=O)N1 (racemic) [Compound 62, (2RS)-2-(6,7-Dihydro-5H-pyrrolo[1,2-c]imidazol-1-yl)-2-[7-fluoro-6-[6-[4-[4-oxo-4-[4-[1-oxo-2-[(3RS)-2,6-dioxo-3-piperidyl]isoindolin-4-yl]oxy-1-piperidyl]butyl]piperazin-1-yl]-3-pyridyl]indazol-2-yl]-N-thiazol-2-yl-acetamide] |  | < 50 nM |  | 
O=C1CCN(c2ccc(N3CCC(O)(CC(=O)N4CC5(CCN(c6ccc(-c7cc(F)c8c(c7)C(=O)N(C(C(=O)Nc7nccs7)c7ncn9c7CCC9)C8)cc6)CC5)C4)CC3)c(Cl)c2)C(=O)N1 (centres unmarked) [Compound 172, 2-[6-[4-[2-[2-[1-[2-chloro-4-(2,4-dioxohexahydropyrimidin-1-yl)phenyl]-4-hydroxy-4-piperidyl]acetyl]-2,7-diazaspiro[3.5]nonan-7-yl]phenyl]-4-fluoro-1-oxo-isoindolin-2-yl]-2-(6,7-dihydro-5H-pyrrolo[1,2-c]imidazol-1-yl)-N-thiazol-2-yl-acetamide] |  |  |  | < 50 nM
O=C1CCC(Nc2ccc(C3CCN(CC(=O)N4CCN(c5ccc(-c6cc(F)c7cn(C(C(=O)Nc8nccs8)c8ncn9c8CCC9)nc7c6)cn5)CC4)CC3)cc2)C(=O)N1 (centres unmarked) [Compound 65, 2-(6,7-dihydro-5H-pyrrolo[1,2-c]imidazol-1-yl)-2-[6-[6-[4-[2-[4-[4-[(2,6-dioxo-3-piperidyl)amino]phenyl]-1-piperidyl]acetyl]piperazin-1-yl]-3-pyridyl]-4-fluoro-indazol-2-yl]-N-thiazol-2-yl-acetamide] |  | < 50 nM |  | 
O=C1CCC(Nc2cc(F)c(N3CCC(O)(CC(=O)N4CC5(C4)CN(c4ccc(-c6cc(F)c7c(c6)C(=O)N(C(C(=O)Nc6nccs6)c6ncn8c6CCC8)C7)cc4)C5)CC3)c(F)c2)C(=O)N1 (single isomer, unassigned; isomer 1) [Compound 119, 2-(6,7-dihydro-5H-pyrrolo[1,2-c]imidazol-1-yl)-2-(6-(4-(6-(2-(1-(4-((2,6-dioxopiperidin-3-yl)amino)-2,6-difluorophenyl)-4-hydroxypiperidin-4-yl)acetyl)-2,6-diazaspiro[3.3]heptan-2-yl)phenyl)-4-fluoro-1-oxoisoindolin-2-yl)-N-(thiazol-2-yl)acetamide, isomer 1] |  |  |  | < 50 nM
Cn1nc(N2CCC(=O)NC2=O)c2ccc([C@H]3CCN(CC(=O)N4CC5(C4)CN(c4ccc(-c6cc(F)c7cn(C(C(=O)Nc8nccs8)c8ncn9c8CCC9)nc7c6)cc4)C5)CC3(F)F)cc21 (stereo partly drawn) [Compound 76, 2-(6,7-dihydro-5H-pyrrolo[1,2-c]imidazol-1-yl)-2-(6-(4-(6-(2-((R)-4-(3-(2,4-dioxotetrahydropyrimidin-1(2H)-yl)-1-methyl-1H-indazol-6-yl)-3,3-difluoropiperidin-1-yl)acetyl)-2,6-diazaspiro[3.3]heptan-2-yl)phenyl)-4-fluoro-2H-indazol-2-yl)-N-(thiazol-2-yl)acetamide] |  |  |  | < 50 nM
O=C1CCN(c2ccc(N3CCC(O)(CC(=O)N4CCC5(CC4)CN(c4ccc(-c6cc(F)c7c(c6)C(=O)N(C(C(=O)Nc6nccs6)c6ncn8c6CCC8)C7)cc4)C5)CC3)c(Cl)c2)C(=O)N1 (centres unmarked) [Compound 170, 2-[6-[4-[7-[2-[1-[2-chloro-4-(2,4-dioxohexahydropyrimidin-1-yl)phenyl]-4-hydroxy-4-piperidyl]acetyl]-2,7-diazaspiro[3.5]nonan-2-yl]phenyl]-4-fluoro-1-oxo-isoindolin-2-yl]-2-(6,7-dihydro-5H-pyrrolo[1,2-c]imidazol-1-yl)-N-thiazol-2-yl-acetamide] |  |  |  | < 50 nM

Second part, the molecule after the results:

DC50 (EGFR L858R; Table 9A) | DC50 (EGFR L858R-T790M; Table 9A) | DC50 (EGFR L858R; Table 9B) | DC50 (EGFR L858R-T790M; Table 9B) | SMILES
50 to 150 nM | 50 to 150 nM |  |  | O=C1CC[C@H](Nc2ccc(C3CCN(CC(=O)N4CC5(CCN(c6ccc(-c7cc(F)c8c(c7)C(=O)N(C(C(=O)Nc7nccs7)c7ncn9c7CCC9)C8)cc6)CC5)C4)CC3)c(F)c2)C(=O)N1 (stereo partly drawn) [Compound 46, 2-(6,7-dihydro-5H-pyrrolo[1,2-c]imidazol-1-yl)-2-(6-(4-(2-(2-(4-(4-(((S)-2,6-dioxopiperidin-3-yl)amino)-2-fluorophenyl)piperidin-1-yl)acetyl)-2,7-diazaspiro[3.5]nonan-7-yl)phenyl)-4-fluoro-1-oxoisoindolin-2-yl)-N-(thiazol-2-yl)acetamide]
< 50 nM | 50 to 150 nM |  |  | O=C1CC[C@H](Nc2ccc(C3CCN(CC(=O)N4CC5(C4)CN(c4ccc(-c6cc(F)c7c(c6)C(=O)N(C(C(=O)Nc6ccccn6)c6ncn8c6CCC8)C7)cc4)C5)CC3)c(F)c2)C(=O)N1 (stereo partly drawn) [Compound 53, 2-(6,7-dihydro-5H-pyrrolo[1,2-c]imidazol-1-yl)-2-[6-[4-[2-[2-[4-[4-[[(3S)-2,6-dioxo-3-piperidyl]amino]-2-fluoro-phenyl]-1-piperidyl]acetyl]-2,6-diazaspiro[3.3]heptan-6-yl]phenyl]-4-fluoro-1-oxo-isoindolin-2-yl]-N-(2-pyridyl)acetamide]
 |  | < 50 nM | 50 to 150 nM | O=C1CC[C@H](Nc2ccc(C3CCN(CC(=O)N4C[C@H]5C[C@@H]4CN5c4ccc(-c5cc(F)c6c(c5)C(=O)N(C(C(=O)Nc5nccs5)c5ncn7c5CCC7)C6)cc4)CC3)c(F)c2)C(=O)N1 (stereo partly drawn) [Compound 80, 2-(6,7-dihydro-5H-pyrrolo[1,2-c]imidazol-1-yl)-2-(6-(4-((1R,4R)-5-(2-(4-(4-(((S)-2,6-dioxopiperidin-3-yl)amino)-2-fluorophenyl)piperidin-1-yl)acetyl)-2,5-diazabicyclo[2.2.1]heptan-2-yl)phenyl)-4-fluoro-1-oxoisoindolin-2-yl)-N-(thiazol-2-yl)acetamide]
< 50 nM | < 50 nM |  |  | O=C1CC[C@H](Nc2ccc(C3CCN(CC(=O)N4CCN(c5ccc(-c6cc(F)c7c(c6)C(=O)N(C(C(=O)Nc6nccs6)c6ncn8c6CCC8)C7)cn5)CC4)CC3)c(F)c2)C(=O)N1 (some centres unmarked) [Compound 27]
